Here are results for one compound from paper PMC6348054 (Bioorganic & medicinal chemistry letters, 2018).

In the assay the test system is 20S proteasome core particle (20S CP). Briefly: FRET peptide hydrolysis assay, percent stimulation over basal. Format: biochemical, Homo sapiens.

In the case of `CCCCC/C=C\C/C=C\CCCCCCCC(=O)O` [compound 15], the Stimulation is on record as 160%.
